“And” between values parts separate entries of the source, which are not always exact repeats. Equal entries are not always repeated.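 Step 1: Grow cells in 96-well plates. Step 2: Expose to compound for 48 hours at 5 concentrations. Step 3: Interpolate endpoints linearly; if unreached, use highest concentration. GI50 is the concentration that inhibits growth by half. TGI: concentration producing complete growth inhibition.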
Legend:
Assay in all cases: NCI-60 cell line screen, 48 h
SK-MEL-5 melanoma = tested on: SK-MEL-5 melanoma
UACC-62 melanoma = tested on: UACC-62 melanoma
SW-620 colon = tested on: SW-620 colon
OVCAR-5 ovarian = tested on: OVCAR-5 ovarian
COLO 205 colon = tested on: COLO 205 colon
IGROV1 ovarian = tested on: IGROV1 ovarian
A549 NSCLC = tested on: A549 NSCLC
RPMI-8226 leukemia = tested on: RPMI-8226 leukemia
MALME-3M melanoma = tested on: MALME-3M melanoma
SNB-19 CNS = tested on: SNB-19 CNS

Structure (SMILES)	TGI (SK-MEL-5 melanoma)	TGI (UACC-62 melanoma)	TGI (SW-620 colon)	TGI (OVCAR-5 ovarian)	TGI (COLO 205 colon)	TGI (IGROV1 ovarian)	TGI (A549 NSCLC)	TGI (RPMI-8226 leukemia)	TGI (MALME-3M melanoma)	TGI (SNB-19 CNS)	GI50 (SK-MEL-5 melanoma)	GI50 (COLO 205 colon)	GI50 (IGROV1 ovarian)	GI50 (RPMI-8226 leukemia)	GI50 (MALME-3M melanoma)	GI50 (SNB-19 CNS)	GI50 (UACC-62 melanoma)	GI50 (SW-620 colon)	GI50 (OVCAR-5 ovarian)	GI50 (A549 NSCLC)
N#CC12CC3(CCC1CCC1(C2)OCCO1)OCCO3 (stereo unspecified)	> 100 µM	> 100 µM	> 100 µM	> 100 µM	> 100 µM	> 100 µM	> 100 µM	> 100 µM	> 100 µM	> 100 µM	–	–	–	–	–	–	–	–	–	–
CN(C)c1ccc(/C=N/NC(=O)c2cnc3ccccc3c2)cc1	> 100 µM	> 100 µM	> 100 µM	> 100 µM	> 100 µM	> 100 µM	> 100 µM	> 100 µM	> 100 µM	> 100 µM	–	–	–	–	–	–	–	–	–	–
CCC(=O)OCN1C(=O)C=CC1=O	42.5 µM and > 58.1 µM	31.8 µM and 30.7 µM	3.58 µM and 4.43 µM	32.9 µM and 33.1 µM	3.56 µM and 11.3 µM	40.5 µM and 34.2 µM	39.9 µM and 34.9 µM	56.2 µM and 13.5 µM	31.5 µM and 27.6 µM	> 100 µM and 32.5 µM	18.9 µM	1.84 µM	21.4 µM	19.3 µM and 4.42 µM	16 µM	> 100 µM	–	–	–	–
CN1C(=O)C(C)(C)Oc2c(-c3cn(C)c(=O)c4[nH]ccc34)cc(S(C)(=O)=O)cc21	3.27 µM	11.8 µM	19.2 µM	> 100 µM	10.5 µM	> 100 µM	> 100 µM	4.94 µM	25.8 µM	> 100 µM	1.34 µM	0.469 µM	0.89 µM	0.243 µM	1.1 µM	1.6 µM	0.39 µM	2.15 µM	1.06 µM	0.989 µM
COc1cc2c3c(n(CCCN4CCN(CCO)CC4)c(=O)c2cc1OC)-c1cc2c(cc1C3=O)OCO2	26 µM	> 33.9 µM	24.7 µM	40.9 µM	> 57.2 µM	> 50.9 µM	20.7 µM	3.91 µM	31 µM	> 65.7 µM	13 µM	15.1 µM	> 34.2 µM	0.559 µM	15.3 µM	14.3 µM	–	8.37 µM	19.9 µM	4.23 µM
CC(=O)Nc1ccccc1S(=O)c1ccccc1 (stereo unspecified)	> 100 µM	> 100 µM	> 100 µM	> 100 µM	> 100 µM	> 100 µM	> 100 µM	> 100 µM	> 100 µM	> 100 µM	–	–	–	–	–	–	–	–	–	–
COc1ccc(CNC(=O)c2c(C)n([O-])c3cc(F)c(F)cc3[n+]2=O)cc1	25.3 µM	28.5 µM	13.1 µM	29.4 µM	24.3 µM	3.84 µM	36.8 µM	30.9 µM	26.8 µM	25.8 µM	12.7 µM	11.2 µM	1.9 µM	6.4 µM	11.2 µM	13.1 µM	15 µM	3.83 µM	16 µM	17.6 µM
N#CC(CC(=O)O)=C(c1ccccc1)c1ccccc1	> 100 µM	> 100 µM	> 100 µM	> 100 µM	> 100 µM	> 100 µM	> 100 µM	> 100 µM	> 100 µM	> 100 µM	–	–	–	–	–	–	–	–	–	–
CC(=O)Nc1cc(CN2CCCCC2)c(O)c2ncccc12	> 100 µM	46.3 µM	> 100 µM	> 100 µM	> 100 µM	> 100 µM	> 100 µM	51.1 µM	69.4 µM	> 100 µM	–	–	–	–	–	–	–	–	–	–
Nc1ncnc2c1ncn2COC/C=C/I	> 100 µM	> 100 µM	> 100 µM	> 100 µM	> 100 µM	> 100 µM	> 100 µM	> 100 µM	> 100 µM	> 100 µM	–	–	–	–	–	–	–	–	–	–
COc1ccc2c(c1)NC(=O)CN2c1nc(C)nc2ccccc12	0.00186 µM	> 100 µM	> 100 µM	> 100 µM	0.0012 µM	74.9 µM	> 100 µM	> 100 µM	> 100 µM	> 100 µM	0.0004 µM	0.000322 µM	0.000829 µM	0.000603 µM	–	0.000655 µM	0.000432 µM	0.000487 µM	–	0.000588 µM
CCCCCC/C(CC(=O)CCC(=O)NCCc1ccccc1)=N\NC(=O)c1ccc2ccccc2c1O	69.5 µM	50.8 µM	> 100 µM	54.2 µM	> 100 µM	> 100 µM	> 100 µM	> 100 µM	> 100 µM	> 100 µM	–	–	–	–	–	–	–	–	–	–
ClCCCN1CCCCC1CCl (stereo unspecified)	> 100 µM	> 100 µM	> 100 µM	> 100 µM	> 100 µM	> 100 µM	> 100 µM	> 100 µM	> 100 µM	> 100 µM	–	–	–	–	–	–	–	–	–	–
COc1ccc(-c2cc(=O)c3cccnc3[nH]2)cc1	> 100 µM	91.2 µM	> 100 µM	> 100 µM	52.5 µM	> 100 µM	> 100 µM	> 100 µM	> 100 µM	> 100 µM	35 µM	–	–	–	–	–	–	–	–	–
N#CC1([N+](=O)[O-])C=C1c1ccccc1 (stereo unspecified)	> 100 µM	66.3 µM	41.6 µM	> 100 µM	> 100 µM	> 100 µM	> 100 µM	49.5 µM	> 100 µM	> 100 µM	–	–	–	–	–	–	–	–	–	–
Nc1cc(N)c2nc(-c3ccccc3)c(Oc3ccc(Cl)c(Cl)c3)nc2c1	28.7 µM	48.2 µM	30.1 µM	58.3 µM	67.8 µM	32.2 µM	43.5 µM	> 100 µM	37.4 µM	52.5 µM	9.77 µM	20.6 µM	11.4 µM	3.51 µM	15.8 µM	20.9 µM	16.3 µM	9.69 µM	25.4 µM	18.1 µM
COC(=O)CCc1c(/C=C2\N=C(c3ccc[nH]3)C=C2OC)[nH]c(C)c1C(=O)OCc1ccccc1	1.75 µM	0.491 µM	3.03 µM	9.84 µM	2.03 µM	2.41 µM	38.7 µM	2.27 µM	2.12 µM	> 100 µM	0.47 µM	0.341 µM	0.355 µM	0.343 µM	0.638 µM	1.17 µM	0.216 µM	0.304 µM	0.684 µM	0.945 µM
N#CCCn1c(CCC(=O)Nc2ccc(Cl)cc2Cl)n[nH]c1=S	> 100 µM	> 100 µM	> 100 µM	> 100 µM	> 100 µM	> 100 µM	> 100 µM	> 100 µM	> 100 µM	> 100 µM	–	–	–	–	–	–	–	–	–	–
CC1(C)N=C(N)N=C(N)N1c1ccc(CCC(=O)Nc2cccc(S(=O)(=O)F)c2)cc1	> 100 µM	> 100 µM	> 100 µM	> 100 µM	> 100 µM	5 µM	> 100 µM	> 100 µM	> 100 µM	> 100 µM	4.83 µM	41.1 µM	1.09 µM	36.4 µM	21.3 µM	7.37 µM	5.3 µM	5.87 µM	> 100 µM	3.32 µM
NC(C(=O)O)c1ccc(C(=O)O)cc1 (stereo unspecified)	> 100 µM	> 100 µM	> 100 µM	> 100 µM	> 100 µM	> 100 µM	> 100 µM	> 100 µM	> 100 µM	> 100 µM	–	–	–	–	–	–	–	–	–	–
CC1=C(C(=O)NCc2ccccc2)C(c2ccccc2O)C(C(=O)NCc2ccccc2)=C(C)N1	28.6 µM	34 µM	32.3 µM	38 µM	30.9 µM	39 µM	44.6 µM	> 100 µM	30.1 µM	42.4 µM	–	–	–	–	–	–	–	–	–	–
CC(=O)CC(=O)ON(C)C(=O)Cc1ccccc1	> 100 µM	> 100 µM	> 100 µM	> 100 µM	> 100 µM	> 100 µM	> 100 µM	> 100 µM	> 100 µM	> 100 µM	–	–	–	–	–	–	–	–	–	–
C[C@H](CCCOS(C)(=O)=O)[C@H]1CC[C@H]2[C@@H]3CC[C@@H]4C[C@H](OS(C)(=O)=O)CC[C@]4(C)[C@H]3CC[C@]12C	> 2500 µM	–	> 2500 µM	> 2500 µM	> 2500 µM	1450 µM	–	1260 µM	–	> 2500 µM	1110 µM	1130 µM	518 µM	69.9 µM	994 µM	929 µM	710 µM	> 2500 µM	391 µM	793 µM
CNCC1CCn2c(c(C3=C(c4cn(C)c5ccccc45)C(=O)NC3=O)c3ccccc32)C1 (stereo unspecified)	7.97 µM	6.48 µM	5.6 µM	20.9 µM	4.77 µM	9.9 µM	10.6 µM	9.86 µM	5.52 µM	16.3 µM	3.88 µM	1.47 µM	4.14 µM	3.85 µM	2.13 µM	4.58 µM	3.16 µM	2.04 µM	3.07 µM	3.16 µM
CCCCCCC(=O)CC(=O)C(=O)Nc1ccccc1C	> 100 µM	> 100 µM	> 59.4 µM	> 100 µM	> 100 µM	> 100 µM	> 100 µM	> 100 µM	> 100 µM	> 100 µM	–	–	–	–	–	–	–	–	–	–
NCCNc1ncnc2ccc(Cl)cc12	> 100 µM	> 100 µM	> 100 µM	> 100 µM	> 100 µM	> 100 µM	> 100 µM	> 100 µM	> 100 µM	> 100 µM	–	–	–	–	–	–	–	–	–	–

Reference: PubChem BioAssay (NCI)
